Where two headings read alike, the source gives them in different places.

One experiment concerns A375 cells. Put plainly: A375 Cell Proliferation Assay (1). The following applies: Homo sapiens, A-375. Type of experiment: cell-based. On the procedure: A375 Cell Proliferation Assay (1)
A375 cells (catalog (#CRL-1619) are obtained from the American Type Culture Collect (ATTC, Manassas, VA). Briefly, cells were grown in DMEM High Glucose supplemented with 10% characterized fetal bovine serum (Invitrogen, Carlsbad, CA) and 1% Penicillin/Streptomycin/L-Glutamine at 37° C., 5% CO2, and 95% humidity. Cells are expanded until reaching 70-95% confluency at which point they are sub-cultured or harvested for assay use. A serial dilution of test compound is dispensed into a 96-well black clear bottom plate in triplicate. Two thousand five hundred cells are added per well in 200 μL complete growth medium in the 96-well plate. Plates are incubated for 67-72 h at 37° C., 5% CO2, and 95% humidity. At the end of the incubation, 40 μL of a 440 μM solution of resazurin (Sigma, St. Louis, MO) in PBS is added to each well of the plate and plates are incubated for an additional 5-6 h at 37° C., 5% CO2, and 95% humidity. Plates are read on a Synergy2 or equivalent reader (Biotek, Winooski VT) using an excitation of 540 nm and an emission of 600 nm. Data is analyzed using Prism software (GraphPad, San Diego, CA) to calculate IC50 values.

Experiment [1] deals with C-Raf kinase (SEQ. ID NO: 3) (Homo sapiens (Human), UniProt P04049, Y340D/Y341D). Put plainly: Biochemical Assay for C-Raf (1). To be noted: Table J. On the procedure: Biochemical Assay for C-Raf (1)
(§1) Activity of C-Raf kinase (SEQ. ID NO: 3) was determined spectroscopically using a coupled pyruvate kinase/lactate dehydrogenase assay that continuously monitors the ATP hydrolysis-dependent oxidation of NADH (e.g., Schindler et al., Science, 2000, 289, 1938-1942). Assays were conducted in 384-well plates (100 μL final volume) using 0.43 nM C-Raf (Sigma), 1.5 units pyruvate kinase, 2.1 units lactate dehydrogenase, 1 mM phosphoenol pyruvate, 0.28 mM NADH, 30.1 nM MEK (SignalChem), and 1 mM ATP in assay buffer (100 mM Tris, Ph 7.5, 15 mM MgCl2, 0.5 mM DTT, 0.1% octyl-glucoside, 0.002% (w/v) BSA, and 0.002% Triton X-100). Inhibition of C-Raf was measured by adding serial diluted test compound (final assay concentration of 1% DMSO). A decrease in absorption at 340 nm was monitored continuously for 6 h at 30° C. on a multi-mode microplate reader (BioTek). The reaction rate was calculated using the 4 to 5 h time frame. The reaction rate at each concentration of compound was converted to percent inhibition using controls (i.e., reaction with no test compound and reaction with a known inhibitor) and IC50 values were calculated by fitting a four-parameter sigmoidal curve to the data using Prism (GraphPad software).

Experiment [2] concerns the target A-Raf kinase (SEQ. ID No: 1) (Homo sapiens (Human), UniProt P10398, Y301D/Y302D). As to the kind of experiment: Biochemical Assay for A-Raf (1). To be noted: Table J. On the procedure: Biochemical Assay for A-Raf (1)
as §1, with “A-Raf” for “C-Raf”, “No: 1)” for “NO: 3)”, “5.55” for “0.43”, “pH” for “Ph”

Experiment [3] concerns the target B-Raf kinase (SEQ. ID NO: 2) (Homo sapiens (Human), UniProt P15056). As to the kind of experiment: Biochemical Assay for B-Raf (1). The following applies: Table J. On the procedure:
Biochemical Assay for B-Raf (1)
as §1, with “B-Raf” for “C-Raf”, “2)” for “3)”, “0.13” for “0.43”

For experiment [4], the target named is B-Raf (V600E) (SEQ. ID NO: 4) kinase (Homo sapiens (Human), UniProt P15056, V600E). Put plainly: Biochemical Assay for B-Raf (V600E) (1). The following applies: Table J, BRAF V600E. On the procedure:
Biochemical Assay for B-Raf (V600E) (1)
Activity of B-Raf (V600E) (SEQ. ID NO: 4) kinase was determined spectroscopically using a coupled pyruvate kinase/lactate dehydrogenase assay that continuously monitors the ATP hydrolysis-dependent oxidation of NADH (e.g., Schindler et al., Science, 2000, 289, 1938-1942). Assays were conducted in 384-well plates (100 μL final volume) using 0.03 nM B-Raf (SignalChem), 1.5 units pyruvate kinase, 2.1 units lactate dehydrogenase, 1 mM phosphoenol pyruvate, 0.28 mM NADH, 30.1 nM MEK (SignalChem), and 1 mM ATP in assay buffer (100 mM Tris, Ph 7.5, 15 mM MgCl2, 0.5 mM DTT, 0.1% octyl-glucoside, 0.002% (w/v) BSA, and 0.002% Triton X-100). Inhibition of B-Raf (V600E) was measured by adding serial diluted test compound (final assay concentration of 1% DMSO). A decrease in absorption at 340 nm was monitored continuously for 6 h at 30° C. on a multi-mode microplate reader (BioTek). The reaction rate was calculated using the 3 to 4 h time frame. The reaction rate at each concentration of compound was converted to percent inhibition using controls (i.e., reaction with no test compound and reaction with a known inhibitor) and IC50 values were calculated by fitting a four-parameter sigmoidal curve to the data using Prism (GraphPad software).

Setting [5] is: assay version (1), read-out: CRAF (1) IC50.
Setting [6] is: assay version (1), read-out: ARAF (1) IC50.
Setting [7] is: assay version (1), read-out: BRAF (1) IC50.
Where [8] appears, read: assay version (1), read-out: BRAF VE (1) IC50.

Sequence of B-Raf kinase (SEQ. ID NO: 2) (P15056 416-766): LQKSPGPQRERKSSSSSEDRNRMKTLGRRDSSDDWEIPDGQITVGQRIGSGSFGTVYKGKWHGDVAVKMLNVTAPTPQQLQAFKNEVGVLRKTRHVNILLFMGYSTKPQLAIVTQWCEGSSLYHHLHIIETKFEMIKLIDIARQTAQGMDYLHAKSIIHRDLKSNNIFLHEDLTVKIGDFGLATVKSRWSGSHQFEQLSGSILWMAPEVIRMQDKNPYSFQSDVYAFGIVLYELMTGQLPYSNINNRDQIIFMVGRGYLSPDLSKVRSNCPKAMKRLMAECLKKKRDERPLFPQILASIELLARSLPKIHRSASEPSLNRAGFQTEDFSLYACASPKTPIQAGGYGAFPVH
Sequence of B-Raf (V600E) (SEQ. ID NO: 4) kinase (P15056 416-766 V600E): as the sequence (P15056 416-766) above, with V185E counted along it
Sequence of A-Raf kinase (SEQ. ID No: 1) (P10398 other isoform, or with tags, fused parts or gaps Y301D (already in the parent)/Y302D (already in the parent)): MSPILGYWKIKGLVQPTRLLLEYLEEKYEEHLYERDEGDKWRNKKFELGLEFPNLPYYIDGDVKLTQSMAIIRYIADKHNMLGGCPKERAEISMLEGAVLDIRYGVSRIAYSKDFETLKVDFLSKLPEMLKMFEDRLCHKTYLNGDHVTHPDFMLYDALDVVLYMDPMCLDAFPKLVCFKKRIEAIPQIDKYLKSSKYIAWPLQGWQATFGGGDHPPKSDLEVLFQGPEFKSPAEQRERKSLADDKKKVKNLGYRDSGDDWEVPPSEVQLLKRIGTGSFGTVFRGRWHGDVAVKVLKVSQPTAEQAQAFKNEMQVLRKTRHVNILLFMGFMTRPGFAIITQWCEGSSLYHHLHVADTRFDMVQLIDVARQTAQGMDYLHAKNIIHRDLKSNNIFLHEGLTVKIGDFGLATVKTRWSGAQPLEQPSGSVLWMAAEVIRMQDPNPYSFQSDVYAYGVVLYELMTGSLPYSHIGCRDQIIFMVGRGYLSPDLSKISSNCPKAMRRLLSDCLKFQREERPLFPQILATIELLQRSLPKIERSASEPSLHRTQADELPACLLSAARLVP
Sequence of C-Raf kinase (SEQ. ID NO: 3) (P04049 307-648 Y340D/Y341D): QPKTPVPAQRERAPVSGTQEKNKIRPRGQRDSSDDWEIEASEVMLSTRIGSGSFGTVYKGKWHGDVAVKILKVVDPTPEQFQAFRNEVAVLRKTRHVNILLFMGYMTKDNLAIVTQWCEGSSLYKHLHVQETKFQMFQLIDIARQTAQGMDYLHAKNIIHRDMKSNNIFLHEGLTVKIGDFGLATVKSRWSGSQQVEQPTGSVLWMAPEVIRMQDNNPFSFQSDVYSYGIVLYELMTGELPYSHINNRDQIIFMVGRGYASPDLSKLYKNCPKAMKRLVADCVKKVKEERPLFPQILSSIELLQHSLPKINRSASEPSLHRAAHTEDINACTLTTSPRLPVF

Consider `Cc1cc(F)c(NC(=O)c2ccnc(C(F)F)c2)cc1-c1cncc(-c2ccnc(NC(=O)C3CC3)c2)n1` [Example 275], for which the IC50 in the experiment on A375 cells was 1000 to 10000 nM; in experiment [1] (setting [5]), at most 100 nM; in experiment [2] (setting [6]) it was 500 to 1000 nM; in experiment [3] (setting [7]) it was at most 100 nM; in experiment [4] (setting [8]), at most 100 nM.

As to `Cc1ccc(NC(=O)c2ccnc(C(C)(C)C#N)c2)cc1-c1ccnc(-c2ccnc(NC(=O)C3(C)CC3)c2)n1` [Example 248], the IC50 in the experiment with A375 cells is 100 to 500 nM; in experiment [1] (setting [5]) it was at most 100 nM; in experiment [2] (setting [6]), 1000 to 10000 nM; in experiment [3] (setting [7]), 100 to 500 nM; in experiment [4] (setting [8]), at most 100 nM.

For the molecule `CC(=O)Nc1cc(-c2cc(-c3cc(NC(=O)c4ccnc(C(C)(C)C#N)c4)c(F)cc3C)cn(C)c2=O)ccn1` [Example 116], the IC50 in the experiment on A375 cells is 100 to 500 nM; in experiment [1] (setting [5]), 100 to 500 nM; in experiment [2] (setting [6]), 1000 to 10000 nM; in experiment [3] (setting [7]), 100 to 500 nM; in experiment [4] (setting [8]) it was at most 100 nM.

Regarding `CNC(=O)c1cc(-c2cccc(-c3cc(NC(=O)c4cccc(C)c4)cnc3C)c2)ccn1` [Example 91], the IC50 with A375 cells is 1000 to 10000 nM; in experiment [1] (setting [5]), at most 100 nM; in experiment [2] (setting [6]) it was 1000 to 10000 nM; in experiment [3] (setting [7]), at most 100 nM; in experiment [4] (setting [8]), at most 100 nM.

`Cc1ccc(NC(=O)c2cccc(C(C)(C)C#N)c2)cc1-c1cncc(-c2ccnc(C(=O)NC3CC3)c2)n1` [Example 149]: the IC50 with A375 cells was 1000 to 10000 nM; in experiment [1] (setting [5]), 100 to 500 nM; in experiment [2] (setting [6]) it was 1000 to 10000 nM; in experiment [3] (setting [7]), 100 to 500 nM; in experiment [4] (setting [8]), at most 100 nM.

For `CNC(=O)c1cc(-c2cnnc(-c3cc(NC(=O)c4cnn(C5CC5)c4)cnc3C)c2)ccn1` [Example 324], the IC50 (with A375 cells; in experiment [1] (setting [5]); in experiment [2] (setting [6]); in experiment [3] (setting [7]); in experiment [4] (setting [8])) was 1000 to 10000 nM in each case.

With `Cc1ccc(NC(=O)c2ccnc(C(C)(C)F)c2)cc1-c1nccc(-c2ccnc(NC(=O)C3CC3)c2)n1` [Example 232], the IC50 in experiment [1] (setting [5]) is at most 100 nM; in experiment [2] (setting [6]), 100 to 500 nM; in experiment [3] (setting [7]), at most 100 nM; in experiment [4] (setting [8]) it was at most 100 nM.

As to `CNC(=O)c1cc(-c2cc(-c3cc(NC(=O)c4ccnc(C(F)F)c4)c(F)cc3C)cc(=O)n2C)ccn1` [Example 115], the IC50 lay within 1000 to 10000 nM in experiment [1] (setting [5]), 1000 to 10000 nM in experiment [2] (setting [6]), 1000 to 10000 nM in experiment [3] (setting [7]) and 100 to 500 nM in experiment [4] (setting [8]).

`Cc1ncc(NC(=O)C2CCOCC2)cc1-c1cccc(-c2cc(NC(=O)C3CC3)ncn2)c1` [Example 349]: the IC50 in experiment [1] (setting [5]) lay within 500 to 1000 nM; in experiment [2] (setting [6]) it was 1000 to 10000 nM; in experiment [3] (setting [7]), 1000 to 10000 nM; in experiment [4] (setting [8]) it was 100 to 500 nM.

For `Cc1ncc(NC(=O)C2CNCCO2)cc1-c1cccc(-c2cc(NC(=O)C3CC3)ncn2)c1` (centres unmarked) [Example 350], the IC50 in experiment [1] (setting [5]), in experiment [2] (setting [6]), in experiment [3] (setting [7]) and in experiment [4] (setting [8]) was 1000 to 10000 nM in each case.

As for `Cc1ccc(NC(=O)Cn2cc(C(C)C)nn2)cc1-c1cncc(-c2cc(N)ncn2)c1` [Example 426], the IC50 was in the range of 500 to 1000 nM in experiment [1] (biochemical assay (1), read-out: CRAF (1)); 1000 to 10000 nM in experiment [2] (biochemical assay (1), read-out: ARAF (1)); 1000 to 10000 nM in experiment [3] (biochemical assay (1), read-out: BRAF (1)); 1000 to 10000 nM in experiment [4] (biochemical assay (1), read-out: BRAF VE (1)).

Turning to `CNC(=O)c1cc(-c2cncc(-c3cc(NC(=O)c4cc(C(F)(F)F)cc(CN(C)C)n4)ccc3C)n2)ccn1` [Example 147], the IC50 in experiment [1] (setting [5]) was 100 to 500 nM; in experiment [2] (setting [6]), 1000 to 10000 nM; in experiment [3] (setting [7]) it was 500 to 1000 nM; in experiment [4] (setting [8]), at most 100 nM.

Regarding `Cc1ncc(NC(=O)C2CCOC2)cc1-c1ccnc(-c2ccnc(NC(=O)C3CC3)c2)n1` (centres unmarked) [Example 337], the IC50 in experiment [1] (setting [5]), in experiment [2] (setting [6]), in experiment [3] (setting [7]) and in experiment [4] (setting [8]) was 1000 to 10000 nM each time.

Regarding `Cc1ccc(NC(=O)C2CCOC2)cc1-c1cccc(-c2cc(NC(=O)C3CC3)ncn2)c1` (centres unmarked) [Example 345], the IC50 in experiment [1] (setting [5]) was 100 to 500 nM; in experiment [2] (setting [6]) it was 1000 to 10000 nM; in experiment [3] (setting [7]), 1000 to 10000 nM; in experiment [4] (setting [8]), at most 100 nM.

In the case of `Cc1ncc(NC(=O)CN2CCOCC2)cc1-c1cccc(-c2cc(NC(=O)C3CC3)ncn2)c1` [Example 353], the IC50 in experiment [1] (setting [5]) is 500 to 1000 nM; in experiment [2] (setting [6]), 1000 to 10000 nM; in experiment [3] (setting [7]) it was 1000 to 10000 nM; in experiment [4] (setting [8]) it was 100 to 500 nM.

On to `Cc1ncc(NC(=O)CC2COC2)cc1-c1nccc(-c2ccnc(NC(=O)C3CC3)c2)n1` [Example 355], for which the IC50 in experiment [1] (setting [5]), in experiment [2] (setting [6]), in experiment [3] (setting [7]) and in experiment [4] (setting [8]) was 1000 to 10000 nM throughout.

As to `Cc1ccc(NC(=O)C2CCN(C)C2)cc1-c1cccc(-c2cc(NC(=O)C3CC3)ncn2)c1` (centres unmarked) [Example 344], the IC50 in experiment [1] (setting [5]) lay within 500 to 1000 nM; in experiment [2] (setting [6]), 1000 to 10000 nM; in experiment [3] (setting [7]) it was 1000 to 10000 nM; in experiment [4] (setting [8]), 100 to 500 nM.

The values are drawn from patent US12319655B2, “RAF kinase inhibitors and methods of use thereof” (Deciphera Pharmaceuticals, LLC, priority 2021, dated 2025).
